The NIST ThermoML archive (doi:10.1016/j.jct.2016.10.029)
Numbers after ± are expanded uncertainties.

Key:
[1] = Crystal; DTA
[2] = Molar enthalpy of transition or fusion; settings: Crystal; DSC

For CCOc1cc(C=O)ccc1O [3-ethoxy-4-hydroxybenzaldehyde], the Normal melting temperature [1] was 79.83 ± 1.1 °C and the “Molar enthalpy of transition or fusion” value [2] was 5.68 ± 0.263 kcal/mol.
